From patent US20090143279A1 (priority 2007, published 2009)
Read-outs that look alike come from different tables or passages of the source.

Assays:
[1] = tested on: mitochondrial membrane potential; type: cell-based, mouse; conditions: for ΔΨm (composite Z-score): normalized score vs mock-treated (DMSO) wells
reactive oxygen species = type: cell-based, mouse; conditions: for ROS (composite Z-score): normalized score vs mock-treated (DMSO) wells
OXPHOS gene expression = type: cell-based, mouse; conditions: for GE-HTS (composite Z-score): normalized score vs mock-treated (DMSO) wells
nuOXPHOS transcripts = type: cell-based, mouse; conditions: for nucOX (composite Z-score): normalized score vs mock-treated (DMSO) wells
mtOXPHOS transcripts = type: cell-based, mouse; conditions: for mitoOX (composite Z-score): normalized score vs mock-treated (DMSO) wells
cytochrome c = type: cell-based, mouse; conditions: for cyt c (composite Z-score): normalized score vs mock-treated (DMSO) wells
C2C12 myotubes = conditions: for Viability (composite Z-score): normalized score vs mock-treated (DMSO) wells
[2] = tested on: cellular dehydrogenase activity; conditions: for MTT (composite Z-score): normalized score vs mock-treated (DMSO) wells
[3] = composite Z-score vs mock-treated (DMSO) wells, Conc 20 μM
[4] = composite Z-score vs DMSO wells, Conc 20 μM
[5] = composite Z-score vs DMSO, Conc 20 μM
[6] = composite Z-score vs mock-treated (DMSO) wells, concentration of each compound in μM
[7] = composite Z-score vs DMSO, Conc 10.62 μM
[8] = normalized composite Z-score vs mock-treated (DMSO) wells, Conc 20 μM

COc1ccc(-c2coc3c(OC)c(OC)cc(OC)c3c2=O)cc1 [isotectorigenin trimethyl ether]
ΔΨm [1, 3]: 0.413
ROS (reactive oxygen species; [3]): 0.359
GE-HTS (OXPHOS gene expression; [3]): 0.437
nucOX (nuOXPHOS transcripts; [3]): 0.426
mitoOX (mtOXPHOS transcripts; [3]): 0.418
cyt c (cytochrome c; [3]): 0.640
Viability (C2C12 myotubes; [3]): 0.976
MTT [2, 3]: −1.465

COc1cc(O)c2c(=O)c(-c3ccc(O)cc3)coc2c1OC [isotectorigenin, 7-methyl ether]
ΔΨm (composite Z-score) ([1]; Conc 20 μM): 0.574
ROS (composite Z-score) (reactive oxygen species; Conc 20 μM): 0.644
GE-HTS (composite Z-score) (OXPHOS gene expression; Conc 20 μM): −0.592
nucOX (composite Z-score) (nuOXPHOS transcripts; Conc 20 μM): −0.674
mitoOX (composite Z-score) (mtOXPHOS transcripts; Conc 20 μM): −0.360
cyt c (composite Z-score) (cytochrome c; Conc 20 μM): −0.477
Viability (composite Z-score) (C2C12 myotubes; Conc 20 μM): 0.633
MTT (composite Z-score) ([2]; Conc 20 μM): −1.606

Cc1cc(NC(=O)C2=C(O)c3ccccc3S(=O)(=O)N2C)no1 [isoxicam]
ΔΨm [1, 4]: −1.091
ROS (reactive oxygen species; [4]): 0.030
GE-HTS (OXPHOS gene expression; [4]): −0.423
nucOX (nuOXPHOS transcripts; [4]): −0.221
mitoOX (mtOXPHOS transcripts; [4]): −0.770
cyt c (cytochrome c): 0.177
cyt c (cytochrome c; [4]): −0.169
Viability (C2C12 myotubes; [4]): 0.010
MTT [2, 4]: −0.152

CC(COc1ccccc1)NC(C)C(O)c1ccc(O)cc1 (stereo not shown) [isoxsuprine]
ΔΨm [1, 5]: −1.246
ROS (reactive oxygen species; [5]): 1.375
GE-HTS (OXPHOS gene expression; [5]): −0.050
nucOX (nuOXPHOS transcripts; [5]): −0.267
mitoOX (mtOXPHOS transcripts; [5]): 0.463
cyt c (cytochrome c; [5]): 0.295
cyt c (cytochrome c; [6]): −0.148
Viability (C2C12 myotubes; [5]): −0.141
MTT [2, 5]: −1.776

O=C(O)/C=C/C=C/c1ccccc1 [juarezic acid]
ΔΨm [1, 5]: −0.821
ROS (reactive oxygen species; [5]): 0.345
GE-HTS (OXPHOS gene expression; [5]): −0.147
nucOX (nuOXPHOS transcripts; [5]): 0.108
mitoOX (mtOXPHOS transcripts; [5]): −0.650
cyt c (cytochrome c; [5]): −0.113
Viability (C2C12 myotubes; [5]): −0.106
MTT [2, 5]: −0.449

NC[C@H]1O[C@H](O[C@H]2[C@H](O)[C@@H](O[C@H]3O[C@H](CO)[C@@H](O)[C@H](N)[C@H]3O)[C@H](N)C[C@@H]2N)[C@H](O)[C@@H](O)[C@@H]1O [kanamycin A]
ΔΨm [1, 6]: −0.812
ROS (reactive oxygen species; [6]): 1.383
GE-HTS (OXPHOS gene expression; [6]): −0.270
nucOX (nuOXPHOS transcripts; [6]): −0.218
mitoOX (mtOXPHOS transcripts; [6]): −0.323
cyt c (cytochrome c; [6]): −0.131
Viability (C2C12 myotubes; [6]): −1.015
MTT [2, 6]: −1.149

O=C(c1ccccc1)c1ccc2n1CCC2C(=O)O (stereo not shown) [ketorolac]
ΔΨm [1, 7]: 0.136
ΔΨm [1, 5]: −0.825
ROS (reactive oxygen species; [7]): 0.482
ROS (reactive oxygen species; [5]): 0.939
GE-HTS (OXPHOS gene expression; [7]): 0.096
GE-HTS (OXPHOS gene expression; [5]): −0.344
nucOX (nuOXPHOS transcripts; [7]): −0.072
nucOX (nuOXPHOS transcripts; [5]): −0.468
mitoOX (mtOXPHOS transcripts; [7]): 0.412
mitoOX (mtOXPHOS transcripts; [5]): −0.033
cyt c (cytochrome c; [7]): 0.315
cyt c (cytochrome c; [5]): −0.707
Viability (C2C12 myotubes; [7]): −0.773
Viability (C2C12 myotubes; [5]): −0.363
MTT [2, 7]: −0.563
MTT [2, 5]: −0.053

CCC(=O)OC1[C@@H]2CC3=C4CC(=O)O[C@@H](c5ccoc5)[C@]4(C)CCC3[C@@](C)(C2=O)[C@@H](CC(=O)OC)C1(C)C (stereo partly shown) [khayasin C]
ΔΨm [1, 3]: −0.095
ROS (reactive oxygen species; [3]): −0.078
GE-HTS (OXPHOS gene expression; [3]): 0.442
nucOX (nuOXPHOS transcripts; [3]): 0.033
mitoOX (mtOXPHOS transcripts; [3]): 1.232
cyt c (cytochrome c; [3]): −0.654
Viability (C2C12 myotubes; [3]): −1.021
MTT [2, 3]: −1.678

CCC(C)C(=O)OC1[C@@H]2CC3=C4CC(=O)O[C@@H](c5ccoc5)[C@]4(C)CCC3[C@@](C)(C2=O)[C@@H](CC(=O)OC)C1(C)C (stereo partly shown) [khayasin]
ΔΨm [1, 3]: 0.007
ROS (reactive oxygen species; [3]): 0.528
GE-HTS (OXPHOS gene expression; [3]): 0.671
nucOX (nuOXPHOS transcripts; [3]): 0.798
mitoOX (mtOXPHOS transcripts; [3]): 0.326
cyt c (cytochrome c; [3]): −0.281
Viability (C2C12 myotubes; [3]): −0.077
MTT [2, 3]: −0.812

CC(=O)O[C@H]1C[C@@H](OC(C)=O)C(C)(C)[C@@H]2C[C@@H](OC(C)=O)[C@]3(C)[C@H](CC[C@@]4(C)[C@H](c5ccoc5)OC(=O)[C@H]5O[C@@]534)[C@@]12C [khivorin]
ΔΨm [1, 3]: −0.145
ROS (reactive oxygen species; [3]): 0.187
GE-HTS (OXPHOS gene expression; [3]): −0.144
nucOX (nuOXPHOS transcripts; [3]): −0.022
mitoOX (mtOXPHOS transcripts; [3]): −0.423
cyt c (cytochrome c; [3]): 0.229
Viability (C2C12 myotubes; [3]): 0.807
MTT [2, 3]: −1.421

OC[C@H]1O[C@@H](n2cnc3c(NCc4ccco4)ncnc32)[C@H](O)[C@@H]1O [kinetin riboside]
ΔΨm [1, 5]: −1.350
ROS (reactive oxygen species; [5]): −2.722
GE-HTS (OXPHOS gene expression; [5]): 0.882
nucOX (nuOXPHOS transcripts; [5]): 0.853
mitoOX (mtOXPHOS transcripts; [5]): 0.750
cyt c (cytochrome c; [5]): −2.612
Viability (C2C12 myotubes; [5]): −1.883
MTT [2, 5]: −4.309

COc1ccc(-c2coc3cc(O)ccc3c2=O)c(OC)c1O [koparin 2′-methyl ether]
ΔΨm [1, 5]: −0.442
ROS (reactive oxygen species; [5]): 0.126
GE-HTS (OXPHOS gene expression; [5]): −1.151
nucOX (nuOXPHOS transcripts; [5]): −1.461
mitoOX (mtOXPHOS transcripts; [5]): −0.309
cyt c (cytochrome c; [5]): 0.007
Viability (C2C12 myotubes; [5]): 0.024
MTT [2, 5]: −0.532

COc1c(O)cc2c(-c3ccccc3)cc(=O)oc2c1OC [kuhlmannin]
ΔΨm (composite Z-score) ([1]; Conc 20 μM): 0.133
ROS (composite Z-score) (reactive oxygen species; Conc 20 μM): 0.443
GE-HTS (composite Z-score) (OXPHOS gene expression; Conc 20 μM): 0.624
nucOX (composite Z-score) (nuOXPHOS transcripts; Conc 20 μM): 0.646
mitoOX (composite Z-score) (mtOXPHOS transcripts; Conc 20 μM): 0.408
cyt c (composite Z-score) (cytochrome c; Conc 20 μM): −0.170
Viability (composite Z-score) (C2C12 myotubes; Conc 20 μM): 0.333
MTT (composite Z-score) ([2]; Conc 20 μM): −0.487

NCCC(=O)c1ccccc1N [kynuramine]
ΔΨm [1, 8]: −0.127
ROS (reactive oxygen species; [8]): 1.180
GE-HTS (OXPHOS gene expression; [8]): 0.070
nucOX (nuOXPHOS transcripts; [8]): 0.093
mitoOX (mtOXPHOS transcripts; [8]): 0.045
cyt c (cytochrome c; [8]): 1.161
Viability (C2C12 myotubes; [8]): 0.319
MTT [2, 8]: −1.264

Nc1ccccc1C(=O)CC(N)C(=O)O (stereo not shown) [kynurenine]
ΔΨm [1, 8]: −0.058
ROS (reactive oxygen species; [8]): 1.941
GE-HTS (OXPHOS gene expression; [8]): −0.039
nucOX (nuOXPHOS transcripts; [8]): −0.088
mitoOX (mtOXPHOS transcripts; [8]): 0.069
cyt c (cytochrome c; [8]): 0.162
Viability (C2C12 myotubes; [8]): −0.110
MTT [2, 8]: −0.912
